Data reported in patent US20080300147A1, “Detection and Treatment of Fibrotic Disorders” (priority 2004, published 2008).

Experiments:
[1] = tested on: leiomyoma smooth muscle cells (LSMC); experiment: Realtime PCR mRNA expression in treated LSMC; type: cell-based, human
Protocol: (§1) Isolation and Culture of Leiomyoma and Myometrial Smooth Muscle Cells. […] Only untreated tissues were used for isolation of LSMC and MSMC. […] LSMC and MSMC were cultured in 6-well plates at an approximate density of 10^6 cells/well in DMEM-supplemented media containing 10% FBS. After reaching visual confluence, the cells were washed in serum-free media and incubated for 24 hrs under serum-free, phenol red-free condition (Chegini, N et al. Mol Hum Reprod, 2002, 8:1071-8).
(§2) Quantitative RealTime PCR. Realtime PCR was utilized for verification of 10 differentially expressed and regulated genes identified in leiomyoma and myometrium as well as LSMC and MSMC from untreated and GnRHa-treated cohorts. The selection of these genes was based not only on their expression values (up or downregulation), but classification and biological functions important to leiomyoma growth and regression, regulation by ovarian steroids, GnRHa and TGF-β. They are IL-11, CITED2, Nur77, EGR3, TGIF, TIEG, p27, p57, GAS-1 and GPRK5 representing cytokines, transcription factors, cell cycle regulators and signal transduction.
(§3) Determination of TGF-β1 on global gene expression in LSMC and MSMC. All the materials utilized for this study including isolation of leiomyoma and myometrial cells are identical to those described in detail above. To determine the effect of TGF-β1 on global gene expression in LSMC and MSMC, the cells were cultured in 6-well plates at approximate density of 10^6 cells/well in DMEM-supplemented media containing 10% FBS. […] The cells were then treated with 2.5 ng/ml of TGF-β1 (R & D System, Minneapolis, […].) for 2, 6 and 12 hours. […] The cells were washed and then treated with TGF-β1 (2.5 ng/ml) for 2 hours. Parallel experiments using untreated cells were used as controls including an additional control for TGF-β type II receptor antisense and sense experiments.
(§4) Total cellular RNA was isolated from LSMC- and MSMC-treated and untreated controls and subjected to microarray analysis. To maintain standard and allow for comparative analysis, the GeneChips used in this study were utilized, simultaneously processed and their gene expression values were subjected to global normalization and transformation. Following these unsupervised assessments the coefficient of variation was calculated for each probe set across all the chips used in this study, and the selected gene expression values of this study were independently subjected to supervised learning including R programming analysis and ANOVA with false discovery rate selected at p<0.001 (Moustakas, A. Immunol Lett, 2002, 82:85-91; Verrecchia, F. et al. J Biol Chem, 2001, 276:17058-17062). The genes identified in these cohorts were analyzed for functional annotation and visualized using Database for Annotation, Visualization, and Integrated Discovery (DAVID) software with integrated GoCharts. Following the analysis, we selected 12 of the differentially expressed and regulated genes, including 10 identified and validated in leiomyoma and myometrium from untreated and GnRHa-treated cohorts, as well as LSMC and MSMC treated in vitro with GnRHa, for validation in response to TGF-β-time dependent action using Realtime PCR. They include IL-11, EGR3, CITED2, TIEG, TGIF, Nur77, p27, p57, GAS-1 and GPRK5. In addition, the expression of Runx1 and Runx2, transcription factors that interact with TGF-β receptor signaling pathways (Zavadil, J. et al. Proc Natl Acad Sci USA, 2001, 98:6686-6691), was validated in LSMC and MSMC as well as in leiomyoma and myometrium from GnRHa-treated and untreated cohorts. Detail description of the materials and methods for Realtime PCR as well as data analysis is provided in Chegini, N. et al. J Soc Gynecol Investig, 2003, 10:161-71.
(§5) Isolation and Culture of Leiomyoma and Myometrial Smooth Muscle Cells. Leiomyoma and myometrial smooth muscle cells (LSMC and MSMC) were isolated and cultured as previously described (Chegini, N. et al. Mol Hum Reprod, 2002, 8:1071-1078). […]

[2] = tested on: myometrial smooth muscle cells (MSMC); experiment: Realtime PCR mRNA expression in treated MSMC; type: cell-based, human
Protocol: as §1, §2, §3, §4, §5

[3] = TGF-β1 2.5 ng/ml, 2, 6 and 12 hours
[4] = TGF-β1 2.5 ng/ml, 2, 6 and 12 hrs
[5] = U0126 20 μM 2 hrs, then GnRHa 0.1 μM 2 hrs
[6] = U0126 20 μM 2 hrs, then TGF-β1 2.5 ng/ml 2 hrs

## TGF-β1: human recombinant TGF-β1 (R&D System), used at 2.5 ng/ml
[1]; [3]
  Gas1 expression in LSMC: suppressed
  Nur77 expression in LSMC: transiently increased
  TGIF expression in LSMC: transiently increased
  TIEG expression in LSMC: transiently increased
  p27Kip1 expression in LSMC: suppressed
  p57Kip2 expression in LSMC: suppressed
[1]; [4]
  CCN3 mRNA expression in LSMC: inhibiting
  S100A4 mRNA expression in LSMC: moderately inhibiting
  fibulin-1C mRNA expression in LSMC: moderately inhibiting
  increase of CCN4 mRNA expression in LSMC: two fold
[1]; TGF-β1 2.5 ng/ml, inhibition after 12 hrs
  FMOD expression in LSMC: either no effect, or inhibited
[2]; [3]
  GAS1 expression in MSMC: suppression
  Nur77 expression in MSMC: transiently increased
  TGIF expression in MSMC: transiently increased
  TIEG expression in MSMC: transiently increased
  p27Kip1 expression in MSMC: biphasic fashion
  p57Kip2 expression in MSMC: biphasic fashion
[2]; [4]
  CCN3 mRNA expression in MSMC: inhibiting
  S100A4 mRNA expression in MSMC: moderately inhibiting
  fibulin-1C mRNA expression in MSMC: increasing
  increase of CCN4 mRNA expression in MSMC: two fold
[2]; TGF-β1 2.5 ng/ml, declined to control levels
  increase in FMOD expression in MSMC: 5-10 fold
[2]; TGF-β1 2.5 ng/ml, gradual reduction to control levels after 12 hrs
  FMOD expression in MSMC: significantly increased

## N#CC(=C(/N)Sc1ccccc1N)/C(C#N)=C(\N)Sc1ccccc1N [U0126]
[1]; [5]
  GnRHa-mediated action on CCN2 expression in LSMC: altered
  GnRHa-mediated action on CCN3 expression in LSMC: altered
  GnRHa-mediated action on CCN4 expression in LSMC: altered
  GnRHa-mediated action on S100A4 expression in LSMC: altered
  GnRHa-mediated action on fibulin-1C expression in LSMC: altered
[1]; U0126 20 μM 2 hrs, then GnRHa 2 hrs, compared to U0126-treated cells
  expression of FMOD in LSMC treated with GnRHa: increased
[1]; [6]
  TGF-β-mediated CCN4 expression in LSMC: inhibited
  TGF-β-mediated S100A4 expression in LSMC: inhibited
  TGF-β-mediated action on CCN2 in LSMC: limited effect
  TGF-β-mediated action on FMOD in LSMC: increased
  TGF-β-mediated fibulin-1C expression in LSMC: inhibited
[1]; U0126 20 μM pretreatment 2 hrs
  basal CCN2 mRNA expression in LSMC: altered
  basal CCN3 mRNA expression in LSMC: altered
  basal CCN4 mRNA expression in LSMC: altered
  basal S100A4 mRNA expression in LSMC: altered
  basal expression of FMOD in LSMC: increased
  basal fibulin-1C mRNA expression in LSMC: altered
[2]; [5]
  GnRHa-mediated action on CCN2 expression in MSMC: altered
  GnRHa-mediated action on CCN3 expression in MSMC: altered
  GnRHa-mediated action on CCN4 expression in MSMC: altered
  GnRHa-mediated action on S100A4 expression in MSMC: altered
  GnRHa-mediated action on fibulin-1C expression in MSMC: altered
[2]; U0126 20 μM 2 hrs, then GnRHa 2 hrs, compared to untreated control
  expression of FMOD in MSMC treated with GnRHa: increased
[2]; [6]
  TGF-β-mediated CCN3 expression in MSMC: inhibited
  TGF-β-mediated CCN4 expression in MSMC: inhibited
  TGF-β-mediated S100A4 expression in MSMC: inhibited
  TGF-β-mediated action on CCN2 in MSMC: limited effect
  TGF-β-mediated action on FMOD in MSMC: inhibiting
  TGF-β-mediated fibulin-1C expression in MSMC: inhibited
[2]; U0126 20 μM pretreatment 2 hrs
  basal CCN2 mRNA expression in MSMC: altered
  basal CCN3 mRNA expression in MSMC: altered
  basal CCN4 mRNA expression in MSMC: altered
  basal S100A4 mRNA expression in MSMC: altered
  basal expression of FMOD in MSMC: increased
  basal fibulin-1C mRNA expression in MSMC: altered
